Experimental data: patent publication US10071975B2, “Macrocyclic amidinourea derivatives, methods of preparation and uses thereof as chitinase inhibitors” (CYGNET BIOSCIENCES B.V., priority 2013, dated 2018)
In brackets after ≈: the same amount, converted by molar mass.

How the values were obtained:
C. kefyr = test: Antimicrobial susceptibility testing (microdilution MIC90), C. kefyr strains; format: cell-based, Candida kefyr; conditions: Kluyveromyces marxianus; C. kefyr (10 strains tested); 24 h
Protocol: (§1) Sterile plastic microtitration plates containing flat-bottomed wells were used. The plates contained serial dilution of the antifungal agents with a volume of assay medium of 100 μL/well. Two drug-free medium wells were used as sterility and growth controls. The trays were inoculated with 100 μL/well of the final inoculum, with the exception of sterility control wells. […] The microtitration plates were incubated at 37° C. for 24 h. The minimal inhibitory concentrations (MICs) were determined at 24 h both visually and spectrophotometrically measuring the turbidity at 595 nm with a Varian model 1475 spectrophotometer. Results of biological tests are shown in Table 2, biological data are reported as MIC90 that is the minimum concentration required to inhibit the growth of at least the 90% of the strains tested for each species.

[1] = system: C. albicans fluconazole resistant strains; test: microbe, parasite or virus in culture; format: cell-based; conditions: Candida albicans, 24 h
C. tropicalis = test: Antimicrobial susceptibility testing (microdilution MIC90), C. tropicalis strains; format: cell-based; conditions: Candida tropicalis; C. tropicalis (11 strains tested); 24 h
Protocol: as §1

C. glabrata = test: Antimicrobial susceptibility testing (microdilution MIC90), C. glabrata strains; format: cell-based, Candida glabrata; conditions: Nakaseomyces glabratus; C. glabrata (26 strains tested); 24 h
Protocol: as §1

C. albicans = test: Antimicrobial susceptibility testing (microdilution MIC90), C. albicans strains; format: cell-based; conditions: Candida albicans; C. albicans (22 strains tested); 24 h, visually and spectrophotometrically
Protocol: as §1

C. guilliermondii = test: Antimicrobial susceptibility testing (microdilution MIC90), C. guilliermondii strains; format: cell-based, Candida guilliermondii; conditions: Meyerozyma guilliermondii; C. guilliermondii (10 strains tested); 24 h
Protocol: as §1

C. parapsilosis = test: Antimicrobial susceptibility testing (microdilution MIC90), C. parapsilosis strains; format: cell-based, Candida parapsilosis; conditions: Lodderomyces parapsilosis; C. parapsilosis (24 strains tested); 24 h
Protocol: as §1

C. krusei = test: Antimicrobial susceptibility testing (microdilution MIC90), C. krusei strains; format: cell-based, Candida krusei; conditions: Pichia kudriavzevii; C. krusei (13 strains tested); 24 h; read-out: MIC90
Protocol: as §1

[2] = system: C. glabrata fluconazole resistant strains; test: microbe, parasite or virus in culture; format: cell-based, Candida glabrata; conditions: Nakaseomyces glabratus, 24 h
[3] = molecular target: chitinase enzyme extracted from Trichoderma viride; test: Chitinase inhibition assay (NP-GlcNAc substrate); format: biochemical
Protocol: Chitinase inhibition assays were conducted against an example of the GH18 family of chitinases, i.e the chitinase enzyme extracted from Trichoderma viride. This enzyme has an high degree of identity compared to chitinase 4 of Candida albicans, and is commercially available from Sigma-Aldrich (catalogue ID: C8241).
The substrate used was the NP-GlcNAc (Sigma-Aldrich, catalogue ID: N9376) dissolved in MES 50 mM at pH6.0; the final concentration was 250 μM. The enzyme was resuspended at 0.11 mg/ml in MES 50 mM at pH 6.0, with a final concentration for the assay of 73 nM diluting with MES 50 mM and BSA 20 μg/ml at pH 6.0. A stock solution of the inhibitors was prepared at 50 mM in DMSO 100%.
The mixture with the inhibitor at various concentrations and the enzyme was prepared directly into the reading plate and left to incubate at room temperature for 20 minutes or three hours. At the end of the incubation times, the substrate was added and the reading was conducted by recording the values up to a maximum time of 10 minutes. The substrate concentration was measured by reading UV absorption at 300 nm (εM^300: 11100), while, the product of hydrolysis were measured at 400 nm (ΔεM^400: 2120). Both IC50 and Ki can be calculated.

[4] = strain DSY284, ERG11 Mutation, mean of three measurements
[5] = strain DSY289, ERG11 Mutation (2)
[6] = strain DSY291, ERG11 Mutation (2)
[7] = strain DSY292, ERG11 Mutation (3)
[8] = strain DSY751, ↑MDR1, ERG11 Mutation
[9] = Enz.-inhib. incubation time 20 min
[10] = Enz.-inhib. incubation time 3 h

What does the source list for C/C=C/CNC(=N)NCCCCCCCCN1CCCCCCOc2ccccc2CNC(=N)NC1=O [Example 18, 1-[(E)-but-2-enyl]-3-[8-(4-imino-6-oxo-14-oxa-3,5,7-triazabicyclo[13.4.0]nonadeca-1(15), 16,18-trien-7-yl)octyl]guanidine]?
MIC90 (C. kefyr): 2 µg/mL (≈ 3.89 µM); MIC [1, 4]: 8 µg/mL (≈ 15.6 µM); MIC [1, 5]: 8 µg/mL (≈ 15.6 µM); MIC [1, 6]: 16 µg/mL (≈ 31.1 µM); MIC [1, 7]: 16 µg/mL (≈ 31.1 µM); MIC ([1]; strain DSY296, ERG11 Mutation): 16 µg/mL (≈ 31.1 µM); MIC ([1]; strain DSY348, ERG11 Mutation): 8 µg/mL (≈ 15.6 µM); MIC ([1]; strain DSY732, ↑CDR1-CDR2): 16 µg/mL (≈ 31.1 µM); MIC ([1]; strain DSY735, ↑CDR1-CDR2): 16 µg/mL (≈ 31.1 µM); MIC ([1]; strain DSY750, ↑MDR1): 16 µg/mL (≈ 31.1 µM); MIC [1, 8]: 16 µg/mL (≈ 31.1 µM); MIC ([1]; strain DSY775, ERG11 Mutation): 16 µg/mL (≈ 31.1 µM); MIC ([1]; strain DSY2323, ↑CDR2-MDR1): 16 µg/mL (≈ 31.1 µM); MIC90 (C. tropicalis): 1 µg/mL (≈ 1.95 µM); MIC90 (C. glabrata): 16 µg/mL (≈ 31.1 µM); MIC90 (C. albicans): 4 µg/mL (≈ 7.79 µM); MIC90 (C. guilliermondii): 2 µg/mL (≈ 3.89 µM); MIC90 (C. parapsilosis): 2 µg/mL (≈ 3.89 µM); MIC90 (C. krusei): 4 µg/mL (≈ 7.79 µM); MIC ([2]; strain DSY530, ↑CDR1): 32 µg/mL (≈ 62.3 µM); MIC ([2]; strain DSY754, ↑CDR1): 32 µg/mL (≈ 62.3 µM); MIC ([2]; strain DSY756, ↑CDR1-CDR2-SNQ2): 64 µg/mL (≈ 125 µM); MIC ([2]; strain DSY2254, ↑CDR1-CDR2): 64 µg/mL (≈ 125 µM); MIC ([2]; strain DSY2271, ↑CDR2): 32 µg/mL (≈ 62.3 µM)

How did the MIC90 (C. kefyr) turn out when C/C=C/CNC(=N)NCCCCCCCCN1CCCc2cccc(c2)COc2ccccc2CNC(=N)NC1=O [Example 23, 1-[(2E)-but-2-en-1-yl]-3-(8-{12-imino-14-oxo-3-oxa-11,13,15-triazatricyclo[17.3.1.0^4,9]tricosa-1(23),4(9),5,7,19,21-hexaen-15-yl}octyl)guanidine] was run?
Its MIC90 is 256 µg/mL (≈ 456 µM).

What about the MIC90 (C. tropicalis) of the same molecule?
The MIC90 was 256 µg/mL (≈ 456 µM).

And the MIC90 (C. glabrata)?
The MIC90 was 128 µg/mL (≈ 228 µM).

What about the MIC90 (C. albicans) of the same molecule?
Its MIC90 is 256 µg/mL (≈ 456 µM).

And the MIC90 (C. guilliermondii)?
Its MIC90 is 256 µg/mL (≈ 456 µM).

And the MIC90 (C. parapsilosis)?
Its MIC90 is 256 µg/mL (≈ 456 µM).

And the MIC90 (C. krusei)?
Its MIC90 is 256 µg/mL (≈ 456 µM).

How did the IC50 [3, 9] turn out when C=C(C)CNC(=N)NCCCCCCN1CCCCCCCCNC(=N)NC1=O [Compound 37, 1-[6-(4-imino-2-oxo-1,3,5-triazacyclotridec-1-yl)hexyl]-3-(2-methylprop-2-enyl)guanidine] was run?
The IC50 was 276 µM.

And the Ki [3, 9]?
The Ki was 81.4 µM.

What about the IC50 [3, 10] of the same molecule?
The IC50 was 108 µM.

What about the Ki [3, 10] of the same molecule?
Its Ki is 34.8 µM.

Which MIC90 (C. kefyr) does the source give for C/C=C/CNC(=N)NCCCCCCCCN1CCCCOc2ccccc2CNC(=N)NC1=O [Example 16, 1-[(E)-but-2-enyl]-3-[8-(4-imino-6-oxo-12-oxa-3,5,7-triazabicyclo[11.4.0]heptadeca-1(13),14,16-trien-7-yl)octyl]guanidine] here?
Its MIC90 is 4 µg/mL (≈ 8.24 µM).

What about the MIC [1, 4] of the same molecule?
The MIC was 16 µg/mL (≈ 32.9 µM).

What about the MIC [1, 5] of the same molecule?
The MIC was 8 µg/mL (≈ 16.5 µM).

And the MIC [1, 6]?
Its MIC is 8 µg/mL (≈ 16.5 µM).

And the MIC [1, 7]?
Its MIC is 16 µg/mL (≈ 32.9 µM).

What about the MIC ([1]; strain DSY296, ERG11 Mutation) of the same molecule?
The MIC was 16 µg/mL (≈ 32.9 µM).

What about the MIC ([1]; strain DSY348, ERG11 Mutation) of the same molecule?
Its MIC is 8 µg/mL (≈ 16.5 µM).

And the MIC ([1]; strain DSY732, ↑CDR1-CDR2)?
Its MIC is 8 µg/mL (≈ 16.5 µM).

What about the MIC ([1]; strain DSY735, ↑CDR1-CDR2) of the same molecule?
The MIC was 8 µg/mL (≈ 16.5 µM).

And the MIC ([1]; strain DSY750, ↑MDR1)?
The MIC was 16 µg/mL (≈ 32.9 µM).

What about the MIC [1, 8] of the same molecule?
The MIC was 16 µg/mL (≈ 32.9 µM).

And the MIC ([1]; strain DSY775, ERG11 Mutation)?
The MIC was 16 µg/mL (≈ 32.9 µM).

And the MIC ([1]; strain DSY2323, ↑CDR2-MDR1)?
The MIC was 8 µg/mL (≈ 16.5 µM).

And the MIC90 (C. tropicalis)?
Its MIC90 is 8 µg/mL (≈ 16.5 µM).

And the MIC90 (C. glabrata)?
The MIC90 was 64 µg/mL (≈ 132 µM).

And the MIC90 (C. albicans)?
The MIC90 was 16 µg/mL (≈ 32.9 µM).

What about the MIC90 (C. guilliermondii) of the same molecule?
Its MIC90 is 16 µg/mL (≈ 32.9 µM).

And the MIC90 (C. parapsilosis)?
The MIC90 was 8 µg/mL (≈ 16.5 µM).

And the MIC90 (C. krusei)?
The MIC90 was 32 µg/mL (≈ 65.9 µM).

And the MIC ([2]; strain DSY530, ↑CDR1)?
The MIC was 64 µg/mL (≈ 132 µM).

And the MIC ([2]; strain DSY754, ↑CDR1)?
The MIC was 64 µg/mL (≈ 132 µM).

What about the MIC ([2]; strain DSY756, ↑CDR1-CDR2-SNQ2) of the same molecule?
Its MIC is 64 µg/mL (≈ 132 µM).

What about the MIC ([2]; strain DSY2254, ↑CDR1-CDR2) of the same molecule?
Its MIC is 64 µg/mL (≈ 132 µM).

What about the MIC ([2]; strain DSY2271, ↑CDR2) of the same molecule?
Its MIC is 64 µg/mL (≈ 132 µM).

Which results are given for N=C(NCCCCCCCCN1CCCCCCCCNC(=N)NC1=O)NCC1CC1 [Compound 34, 1-(cyclopropylmethyl)-3-[8-(4-imino-2-oxo-1,3,5-triazacyclotridec-1-yl)octyl]guanidine]?
IC50 [3, 9]: 252 µM; Ki [3, 9]: 81.4 µM; IC50 [3, 10]: 130 µM; Ki [3, 10]: 42 µM

With C/C=C/CNC(=N)NCCCCCCCCN1CCCCCCOC(=O)CCNC(=N)NC1=O [Example 20, 1-[(E)-but-2-enyl]-3-[8-(6-imino-2,8-dioxo-1-oxa-5,7,9-triazacyclopentadec-9-yl)octyl]guanidine] as the molecule, how does the MIC90 (C. kefyr) read?
The MIC90 was 16 µg/mL (≈ 33.4 µM).

What about the MIC90 (C. tropicalis) of the same molecule?
Its MIC90 is 16 µg/mL (≈ 33.4 µM).

What about the MIC90 (C. glabrata) of the same molecule?
The MIC90 was 32 µg/mL (≈ 66.7 µM).

What about the MIC90 (C. albicans) of the same molecule?
Its MIC90 is 16 µg/mL (≈ 33.4 µM).

What about the MIC90 (C. guilliermondii) of the same molecule?
Its MIC90 is 8 µg/mL (≈ 16.7 µM).

And the MIC90 (C. parapsilosis)?
The MIC90 was 8 µg/mL (≈ 16.7 µM).

And the MIC90 (C. krusei)?
Its MIC90 is 32 µg/mL (≈ 66.7 µM).

C/C=C/CNC(=N)NCCCCCCCCN1CCCc2ccccc2COc2ccccc2CNC(=N)NC1=O [Example 22, 1-[(2E)-but-2-en-1-yl]-3-(8-{16-imino-14-oxo-2-oxa-13,15,17-triazatricyclo[17.4.0.0^4,9]tricosa-1(19),4(9),5,7,20,22-hexaen-13-yl}octyl)guanidine] was tested. Which MIC90 (C. kefyr) did it give?
Its MIC90 is 128 µg/mL (≈ 228 µM).

What about the MIC90 (C. tropicalis) of the same molecule?
Its MIC90 is 128 µg/mL (≈ 228 µM).

What about the MIC90 (C. glabrata) of the same molecule?
Its MIC90 is 128 µg/mL (≈ 228 µM).

What about the MIC90 (C. albicans) of the same molecule?
The MIC90 was 64 µg/mL (≈ 114 µM).

What about the MIC90 (C. guilliermondii) of the same molecule?
The MIC90 was 64 µg/mL (≈ 114 µM).

What about the MIC90 (C. parapsilosis) of the same molecule?
The MIC90 was 64 µg/mL (≈ 114 µM).

What about the MIC90 (C. krusei) of the same molecule?
Its MIC90 is 256 µg/mL (≈ 456 µM).
